What was measured:
[1] = target: IDH1-R132H recombinant protein (Homo sapiens, UniProt O75874, R132H); test: IDH1-R132H enzymatic assay (NADPH consumption, diaphorase/resazurin readout); assay type: biochemical; settings: read-out: Enzyme IDH1 R132H Range
Experimental: (§1) Assays were performed in a 384-well black plate. […] After the plate was centrifuged briefly, an aliquot of 10 μL of 2 mM α-ketoglutarate and 20 μM NADPH solution prepared in assay buffer was then added to each well and the reaction was maintained at 25° C. for 45 minutes. An aliquot of 10 μL of diaphorase solution (0.15 U/mL diaphorase and 30 μM Resazurin in assay buffer) was added to each well. […] The IC50 of a given compound was calculated by fitting the dose response curve of inhibition of NADPH consumption at a given concentration with the four parameter logistic equation.

[2] = target: IDH1-R132C recombinant protein (Homo sapiens, UniProt O75874, R132C); test: IDH1-R132C enzymatic assay (NADPH consumption, diaphorase/resazurin readout); assay type: biochemical; settings: read-out: Enzyme IDH1 R132C Range
Sequence of IDH1-R132C recombinant protein (O75874 whole entry R132C): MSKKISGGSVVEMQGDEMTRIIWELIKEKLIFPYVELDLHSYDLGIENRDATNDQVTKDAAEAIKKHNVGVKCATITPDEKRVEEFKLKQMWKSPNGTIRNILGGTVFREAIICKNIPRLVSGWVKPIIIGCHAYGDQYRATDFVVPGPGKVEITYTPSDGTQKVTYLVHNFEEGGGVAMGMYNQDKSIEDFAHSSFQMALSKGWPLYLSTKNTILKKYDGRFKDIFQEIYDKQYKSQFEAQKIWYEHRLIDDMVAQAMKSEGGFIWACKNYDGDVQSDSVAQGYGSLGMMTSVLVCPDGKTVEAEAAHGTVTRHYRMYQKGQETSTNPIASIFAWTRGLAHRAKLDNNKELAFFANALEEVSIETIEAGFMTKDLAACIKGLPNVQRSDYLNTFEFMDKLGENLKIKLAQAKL
Experimental: as §1

[3] = tested on: HCT116 isogenic IDH1-R132H mutant cells; test: Cellular 2-HG assay using HCT116 mutant IDH1 cells (R132H); assay type: cell-based; settings: Homo sapiens, HCT-116; cellular 2-HG inhibition, 24 hours, RapidFire mass spectrometry; read-out: HCT116 IDH1 R132H Range
Experimental: (§2) HCT116 isogenic IDH1-R132H and IDH1-R132C mutant cells were cultured in growth media (McCoy's 5A, 10% fetal bovine serum, 1× antibiotic-antimycotic solution and 0.3 mg/mL G418) in 5% CO2 in an incubator at 37° C. To prepare the assay, cells were trypsinized and resuspended in assay media (McCoy's 5A with no L-glutamine, 10% fetal bovine serum, 1× antibiotic-antimycotic solution and 0.3 mg/mL G418). An aliquot of 10,000 cells/100 μL was transferred to each well of a clear 96-well tissue culture plate. The cells were incubated in 5% CO2 at 37° C. in an incubator overnight to allow for proper cell attachment. An aliquot of 50 μL of compound containing assay media were then added to each well and the assay plate was kept in 5% CO2 at 37° C. in an incubator for 24 hours. The media was then removed from each well and 150 μL of a methanol/water mixture (80/20 v/v) was added to each well. The plates were kept at −80° C. freezer overnight to allow for complete cell lysis. An aliquot of 125 μL of extracted supernatant was analyzed by RapidFire high-throughout-mass spectrometry (Agilent) to determine the cellular 2-HG level. The IC50 of a given compound was calculated by fitting the dose response curve of cellular 2-HG inhibition at a given concentration with the four parameter logistic equation

[4] = tested on: HCT116 isogenic IDH1-R132C mutant cells; test: Cellular 2-HG assay using HCT116 mutant IDH1 cells (R132C); assay type: cell-based; settings: Homo sapiens, HCT-116; cellular 2-HG inhibition, 24 hours, RapidFire mass spectrometry; read-out: HCT116 IDH1 R132C Range
Experimental: as §2

Sequence of IDH1-R132H recombinant protein (O75874 whole entry R132H): as the sequence (O75874 whole entry R132C) above, with C132H counted along it

Structure (SMILES)	IC50 [1] [nM]	IC50 [2] [nM]	IC50 [3] [nM]	IC50 [4] [nM]
N#Cc1ccc(NCc2cc3cc(Cl)ccc3[nH]c2=O)c(=O)[nH]1 [Compound I-4, 5-{[(6-chloro-2-oxo-1,2-dihydroquinolin-3-yl)methyl]amino}-6-oxo-1,6-dihydropyridine-2-carbonitrile]	10 to 100	100 to 1000		
O=c1[nH]c2ccc(Cl)cc2cc1CNc1ccc(Br)[nH]c1=O [Compound I-7, 3-{[(6-bromo-2-oxo-1,2-dihydropyridin-3-yl)amino]methyl}-6-chloro-1,2-dihydroquinolin-2-one]	> 1000			
O=c1[nH]c2ccc(Cl)cc2cc1CNc1ccc(C(F)(F)F)[nH]c1=O [Compound I-8, 6-chloro-3-({[2-oxo-6-(trifluoromethyl)-1,2-dihydropyridin-3-yl]amino}methyl)-1,2-dihydroquinolin-2-one]	> 1000			
Cn1c(C(F)(F)F)ccc(NCc2cc3cc(Cl)ccc3[nH]c2=O)c1=O [Compound I-9, 6-chloro-3-({[1-methyl-2-oxo-6-(trifluoromethyl)-1,2-dihydropyridin-3-yl]amino}methyl)-1,2-dihydroquinolin-2-one]	100 to 1000	> 10000		
COC(=O)c1c[nH]c(=O)c(NCc2cc3cc(Cl)ccc3[nH]c2=O)c1 [Compound I-10, methyl 5-{[(6-chloro-2-oxo-1,2-dihydroquinolin-3-yl)methyl]amino}-6-oxo-1,6-dihydropyridine-3-carboxylate]	> 1000			
Cn1cccc(NCc2cc3cc(Cl)c(OCc4ccccn4)cc3[nH]c2=O)c1=O [Compound I-12, 6-chloro-3-{[(1-methyl-2-oxo-1,2-dihydropyridin-3-yl)amino]methyl}-7-(pyridin-2-ylmethoxy)-1,2-dihydroquinolin-2-one]	10 to 100	> 10000		
C[C@H](Nc1ccc(C#N)n(C)c1=O)c1cc2cc(Cl)ccc2[nH]c1=O [Compound I-13, (S)-5-((1-(6-chloro-2-oxo-1,2-dihydroquinolin-3-yl)ethyl)amino)-1-methyl-6-oxo-1,6-dihydropyridine-2-carbonitrile]			10 to 100	10 to 100
C[C@H](Nc1ccc(C#N)[nH]c1=O)c1cc2cc(Cl)ccc2[nH]c1=O [Compound I-14, 5-{[(1S)-1-(6-chloro-2-oxo-1,2-dihydroquinolin-3-yl)ethyl]amino}-6-oxo-1,6-dihydropyridine-2-carbonitrile]	10 to 100	100 to 1000	10 to 100	100 to 1000
C[C@H](Nc1ccc(C#N)n(C)c1=O)c1cc2cc(Cl)c(F)cc2[nH]c1=O [Compound I-16, 5-{[(1S)-1-(6-chloro-7-fluoro-2-oxo-1,2-dihydroquinolin-3-yl)ethyl]amino}-1-methyl-6-oxo-1,6-dihydropyridine-2-carbonitrile]	10 to 100	100 to 1000	10 to 100	100 to 1000
C[C@H](Nc1ncc(C#N)n(C)c1=O)c1cc2cc(Cl)ccc2[nH]c1=O [Compound I-17, 5-{[(1S)-1-(6-chloro-2-oxo-1,2-dihydroquinolin-3-yl)ethyl]amino}-1-methyl-6-oxo-1,6-dihydropyrazine-2-carbonitrile]	10 to 100	100 to 1000	10 to 100	100 to 1000
C[C@@H](Nc1ccc(C#N)n(C)c1=O)c1cc2cc(Cl)c(F)cc2[nH]c1=O [Compound I-18, 5-{[(1R)-1-(6-chloro-7-fluoro-2-oxo-1,2-dihydroquinolin-3-yl)ethyl]amino}-1-methyl-6-oxo-1,6-dihydropyridine-2-carbonitrile]	> 1000	> 10000		
CC(Nc1ccc(C#N)n(C)c1=O)c1cc2cc(Cl)c(F)cc2[nH]c1=O (centres unmarked) [Compound I-19, 5-{[1-(6-chloro-7-fluoro-2-oxo-1,2-dihydroquinolin-3-yl)ethyl]amino}-1-methyl-6-oxo-1,6-dihydropyridine-2-carbonitrile]	10 to 100	100 to 1000	10 to 100	10 to 100
COc1cc2[nH]c(=O)c([C@H](C)Nc3ccc(C#N)n(C)c3=O)cc2cc1Cl [Compound I-20, 5-{[(1S)-1-(6-chloro-7-methoxy-2-oxo-1,2-dihydroquinolin-3-yl)ethyl]amino}-1-methyl-6-oxo-1,6-dihydropyridine-2-carbonitrile]			< 10	10 to 100
COc1cc2[nH]c(=O)c(C(C)Nc3ccc(C#N)n(C)c3=O)cc2cc1Cl (centres unmarked) [Compound I-22, 5-{[1-(6-chloro-7-methoxy-2-oxo-1,2-dihydroquinolin-3-yl)ethyl]amino}-1-methyl-6-oxo-1,6-dihydropyridine-2-carbonitrile]			< 10	10 to 100
C[C@H](Nc1ccc(C#N)n(C)c1=O)c1cc2cc(Cl)c(OCc3ccccn3)cc2[nH]c1=O [Compound I-23, 5-{[(1S)-1-[6-chloro-2-oxo-7-(pyridin-2-ylmethoxy)-1,2-dihydroquinolin-3-yl]ethyl]amino}-1-methyl-6-oxo-1,6-dihydropyridine-2-carbonitrile]			< 10	< 10
CC(Nc1ccc(C#N)n(C)c1=O)c1cc2cc(Cl)c(OCc3ccccn3)cc2[nH]c1=O (centres unmarked) [Compound I-25, 5-({1-[6-chloro-2-oxo-7-(pyridin-2-ylmethoxy)-1,2-dihydroquinolin-3-yl]ethyl}amino)-1-methyl-6-oxo-1,6-dihydropyridine-2-carbonitrile]			< 10	< 10
C[C@H](Nc1ccc(C#N)n(C)c1=O)c1cc2cc(Cl)c(O[C@H](C)c3ccccn3)cc2[nH]c1=O [Compound I-26, 5-(((S)-1-(6-chloro-2-oxo-7-((R)-1-(pyridin-2-yl)ethoxy)-1,2-dihydroquinolin-3-yl)ethyl)amino)-1-methyl-6-oxo-1,6-dihydropyridine-2-carbonitrile]			< 10	< 10
C[C@H](Nc1ccc(C#N)n(C)c1=O)c1cc2cc(Cl)c(OCC3CC3)cc2[nH]c1=O [Compound I-27, 5-{[(1S)-1-[6-chloro-7-(cyclopropylmethoxy)-2-oxo-1,2-dihydroquinolin-3-yl]ethyl]amino}-1-methyl-6-oxo-1,6-dihydropyridine-2-carbonitrile]			< 10	10 to 100
CC(Nc1ccc(C#N)n(C)c1=O)c1cc2cc(Cl)c(OCC3CC(F)(F)C3)cc2[nH]c1=O (centres unmarked) [Compound I-28, 5-[(1-{6-chloro-7-[(3,3-difluorocyclobutyl)methoxy]-2-oxo-1,2-dihydroquinolin-3-yl}ethyl)amino]-1-methyl-6-oxo-1,6-dihydropyridine-2-carbonitrile]	10 to 100		10 to 100	10 to 100
CC(C)Oc1cc2[nH]c(=O)c([C@H](C)Nc3ccc(C#N)n(C)c3=O)cc2cc1Cl [Compound I-29, 5-{[(1S)-1-[6-chloro-2-oxo-7-(propan-2-yloxy)-1,2-dihydroquinolin-3-yl]ethyl]amino}-1-methyl-6-oxo-1,6-dihydropyridine-2-carbonitrile]			10 to 100	10 to 100
C[C@H](Nc1ccc(C#N)n(C)c1=O)c1cc2cc(Cl)cc(F)c2[nH]c1=O [Compound I-30, 5-{[(1S)-1-(6-chloro-8-fluoro-2-oxo-1,2-dihydroquinolin-3-yl)ethyl]amino}-1-methyl-6-oxo-1,6-dihydropyridine-2-carbonitrile]	10 to 100	100 to 1000	10 to 100	100 to 1000
C[C@H](Nc1ccc(C#N)n(C)c1=O)c1cc2cc(Cl)cnc2[nH]c1=O [Compound I-31, 5-{[(1S)-1-(6-chloro-2-oxo-1,2-dihydro-1,8-naphthyridin-3-yl)ethyl]amino}-1-methyl-6-oxo-1,6-dihydropyridine-2-carbonitrile]	100 to 1000	1000 to 10000	10 to 100	> 1000
C[C@@H](Nc1ccc(C#N)n(C)c1=O)c1nc2cc(Cl)ccc2[nH]c1=O [Compound I-32, 5-{[(1R)-1-(7-chloro-3-oxo-3,4-dihydroquinoxalin-2-yl)ethyl]amino}-1-methyl-6-oxo-1,6-dihydropyridine-2-carbonitrile]	100 to 1000	1000 to 10000	> 1000	> 1000
C[C@H](Nc1ccc(C#N)n(C)c1=O)c1nc2cc(Cl)ccc2[nH]c1=O [Compound I-33, 5-{[(1S)-1-(7-chloro-3-oxo-3,4-dihydroquinoxalin-2-yl)ethyl]amino}-1-methyl-6-oxo-1,6-dihydropyridine-2-carbonitrile]	100 to 1000	1000 to 10000	100 to 1000	> 1000

— patent US12275715B2, “Pyridin-2(1H)-one quinolinone derivatives as mutant-isocitrate dehydrogenase inhibitors” (FORMA Therapeutics, Inc., priority 2014, dated 2025)
